In BigSolDB 2.1:

COC(=O)[C@H](N)c1ccc(O)cc1
Details | solubility (mole fraction)
in ethanol, 283.15 K | 0.00129
in ethanol, 288.13 K | 0.00179
in ethanol, 293.15 K | 0.0024
in ethanol, 298.17 K | 0.00318
in ethanol, 303.15 K | 0.00411
in ethanol, 308.2 K | 0.00522
in ethanol, 313.15 K | 0.00652
in ethanol, 318.1 K | 0.008
in ethanol, 323.15 K | 0.00968
in ethyl acetate, 283.15 K | 0.000154
in ethyl acetate, 288.17 K | 0.00029
in ethyl acetate, 293.15 K | 0.000479
in ethyl acetate, 298.15 K | 0.000761
in ethyl acetate, 303.16 K | 0.00113
in ethyl acetate, 308.15 K | 0.00158
in ethyl acetate, 313.15 K | 0.00209
in ethyl acetate, 318.18 K | 0.00261
in ethyl acetate, 323.15 K | 0.00311
in isopropanol, 283.15 K | 0.000167
in isopropanol, 288.2 K | 0.000327
in isopropanol, 293.14 K | 0.000576
in isopropanol, 298.15 K | 0.000976
in isopropanol, 303.15 K | 0.00163
in isopropanol, 308.2 K | 0.00258
in isopropanol, 313.2 K | 0.00368
in isopropanol, 318.15 K | 0.00517
in isopropanol, 323.15 K | 0.00677
in isopropyl acetate, 283.17 K | 4.68e-05
in isopropyl acetate, 288.15 K | 8.53e-05
in isopropyl acetate, 293.14 K | 0.000146
in isopropyl acetate, 298.15 K | 0.000237
in isopropyl acetate, 303.13 K | 0.00037
in isopropyl acetate, 308.15 K | 0.000555
in isopropyl acetate, 313.15 K | 0.0008
in isopropyl acetate, 318.15 K | 0.00111
in isopropyl acetate, 323.15 K | 0.00149
in methanol, 283.1 K | 0.00221
in methanol, 288.15 K | 0.00273
in methanol, 293.24 K | 0.00338
in methanol, 298.1 K | 0.00415
in methanol, 303.15 K | 0.00505
in methanol, 308.2 K | 0.00611
in methanol, 313.2 K | 0.00732
in methanol, 318.15 K | 0.00872
in methanol, 323.2 K | 0.0103
in methyl acetate, 283.12 K | 0.000417
in methyl acetate, 288.2 K | 0.000578
in methyl acetate, 293.17 K | 0.000914
in methyl acetate, 298.14 K | 0.00136
in methyl acetate, 303.15 K | 0.0019
in methyl acetate, 308.15 K | 0.00253
in methyl acetate, 313.15 K | 0.0032
in methyl acetate, 318.15 K | 0.00385
in methyl acetate, 323.15 K | 0.00444
in n-butanol, 283.15 K | 0.000489
in n-butanol, 288.2 K | 0.000737
in n-butanol, 293.17 K | 0.00114
in n-butanol, 298.18 K | 0.00164
in n-butanol, 303.15 K | 0.00224
in n-butanol, 308.2 K | 0.00308
in n-butanol, 313.15 K | 0.00418
in n-butanol, 318.15 K | 0.00561
in n-butanol, 323.15 K | 0.00733
in n-butyl acetate, 283.1 K | 5.67e-05
in n-butyl acetate, 288.15 K | 8.11e-05
in n-butyl acetate, 293.15 K | 0.000116
in n-butyl acetate, 298.17 K | 0.000165
in n-butyl acetate, 303.15 K | 0.000233
in n-butyl acetate, 308.15 K | 0.000326
in n-butyl acetate, 313.14 K | 0.000456
in n-butyl acetate, 318.15 K | 0.000626
in n-butyl acetate, 323.12 K | 0.000873
in n-pentanol, 283.14 K | 6.94e-05
in n-pentanol, 288.2 K | 0.000156
in n-pentanol, 293.15 K | 0.000322
in n-pentanol, 298.15 K | 0.000606
in n-pentanol, 303.15 K | 0.00107
in n-pentanol, 308.14 K | 0.00177
in n-pentanol, 313.15 K | 0.00273
in n-pentanol, 318.15 K | 0.00399
in n-pentanol, 323.15 K | 0.00549
in n-propanol, 283.13 K | 0.000939
in n-propanol, 288.2 K | 0.00127
in n-propanol, 293.15 K | 0.00173
in n-propanol, 298.13 K | 0.00226
in n-propanol, 303.15 K | 0.00295
in n-propanol, 308.15 K | 0.00382
in n-propanol, 313.15 K | 0.0049
in n-propanol, 318.2 K | 0.00624
in n-propanol, 323.15 K | 0.00787
in n-propyl acetate, 283.15 K | 6.95e-05
in n-propyl acetate, 288.14 K | 0.000135
in n-propyl acetate, 293.17 K | 0.000242
in n-propyl acetate, 298.2 K | 0.000415
in n-propyl acetate, 303.15 K | 0.000663
in n-propyl acetate, 308.15 K | 0.00102
in n-propyl acetate, 313.15 K | 0.0015
in n-propyl acetate, 318.15 K | 0.00203
in n-propyl acetate, 323.15 K | 0.00275
in water, 283.13 K | 1.9e-05
in water, 288.16 K | 2.8e-05
in water, 293.15 K | 4.81e-05
in water, 298.15 K | 7.86e-05
in water, 303.18 K | 0.000123
in water, 308.15 K | 0.000177
in water, 313.2 K | 0.000232
in water, 318.15 K | 0.0003
in water, 323.15 K | 0.00037
